# Columns and labels:
# kochia [1] = assay: Test C preemergence; assay type: in vivo, Bassia scoparia
# How it was run: (§1)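 Test material, in non-phytotoxic solvent with surfactant, was sprayed on the soil directly after seeding (preemergence) or on young plants of 2–10 cm with one to two leaves (postemergence). Greenhouse, 10 days; 0–100 visual control scale.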
# green foxtail [2] = assay: Test C preemergence; assay type: in vivo, Setaria viridis
# How it was run: as §1
# barnyardgrass [3] = assay: Test C postemergence; assay type: in vivo, Echinochloa crusgalli; settings: 10 days, 0 to 100 scale (0 no effect, 100 complete control)
# How it was run: as §1
# oat, wild [4] = assay: Test C postemergence; assay type: in vivo, Avena fatua; settings: 10 days, 0 to 100 scale (0 no effect, 100 complete control)
# How it was run: as §1
# sedge, umbrella = assay: Test D flooded paddy test; assay type: in vivo, Cyperus difformis; settings: 250 g ai/ha, applied to paddy water, visual rating after 13 to 14 days, scale 0 to 100 (0 no effect, 100 complete control)
# How it was run: (§2)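 Seedlings reached the 2-leaf stage, then pots were flooded to 3 cm over the soil surface. Compound was applied into the water, depth was maintained, and plants stayed in the greenhouse 13 to 14 days before visual scoring (0–100) relative to controls.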
# barnyardgrass [5] = assay: Test C preemergence; assay type: in vivo, Echinochloa crusgalli
# How it was run: as §1
# oat, wild [6] = assay: Test C preemergence; assay type: in vivo, Avena fatua
# How it was run: as §1
# soybean [7] = assay: Test C postemergence; assay type: in vivo, Glycine max; settings: 10 days, 0 to 100 scale (0 no effect, 100 complete control)
# How it was run: as §1
# horseweed = assay: Test C postemergence; assay type: in vivo, Erigeron canadensis; settings: 10 days, 0 to 100 scale (0 no effect, 100 complete control)
# How it was run: as §1
# rice = assay: Test D flooded paddy test; assay type: in vivo, Oryza sativa; settings: 250 g ai/ha, applied to paddy water, visual rating after 13 to 14 days, scale 0 to 100 (0 no effect, 100 complete control)
# How it was run: as §2
# ducksalad = assay: Test D flooded paddy test; assay type: in vivo, Heteranthera limosa; settings: 250 g ai/ha, applied to paddy water, visual rating after 13 to 14 days, scale 0 to 100 (0 no effect, 100 complete control)
# How it was run: as §2
# blackgrass [8] = assay: Test C preemergence; assay type: in vivo, Alopecurus myosuroides
# How it was run: as §1
# soybean [9] = assay: Test C preemergence; assay type: in vivo, Glycine max
# How it was run: as §1
# corn [10] = assay: Test C preemergence; assay type: in vivo, Zea mays
# How it was run: as §1
# wheat [11] = assay: Test C postemergence; assay type: in vivo, Triticum aestivum; settings: 10 days, 0 to 100 scale (0 no effect, 100 complete control)
# How it was run: as §1
# barnyardgrass [12] = assay: Test D flooded paddy test; assay type: in vivo, Echinochloa crus-galli; settings: 250 g ai/ha, applied to paddy water, visual rating after 13 to 14 days, scale 0 to 100 (0 no effect, 100 complete control)
# How it was run: as §2
# kochia [13] = assay: Test C postemergence; assay type: in vivo, Bassia scoparia; settings: 10 days, 0 to 100 scale (0 no effect, 100 complete control)
# How it was run: as §1
# ragweed [14] = assay: Test C preemergence; assay type: in vivo, Ambrosia artemisiifolia
# How it was run: as §1
# ryegrass, Italian [15] = assay: Test C postemergence; assay type: in vivo, Lolium multiflorum; settings: 10 days, 0 to 100 scale (0 no effect, 100 complete control)
# How it was run: as §1
# wheat [16] = assay: Test C preemergence; assay type: in vivo, Triticum aestivum
# How it was run: as §1
# corn [17] = assay: Test C postemergence; assay type: in vivo, Zea mays; settings: 10 days, 0 to 100 scale (0 no effect, 100 complete control)
# How it was run: as §1
# galium = assay: Test C postemergence; assay type: in vivo, Galium aparine; settings: 10 days, 0 to 100 scale (0 no effect, 100 complete control)
# How it was run: as §1
# green foxtail [18] = assay: Test C postemergence; assay type: in vivo, Setaria viridis; settings: 10 days, 0 to 100 scale (0 no effect, 100 complete control)
# How it was run: as §1
# pigweed, palmer [19] = assay: Test C preemergence; assay type: in vivo, Amaranthus palmeri
# How it was run: as §1
# blackgrass [20] = assay: Test C postemergence; assay type: in vivo, Alopecurus myosuroides; settings: 10 days, 0 to 100 scale (0 no effect, 100 complete control)
# How it was run: as §1
# pigweed, palmer [21] = assay: Test C postemergence; assay type: in vivo, Amaranthus palmeri; settings: 10 days, 0 to 100 scale (0 no effect, 100 complete control)
# How it was run: as §1
# ragweed [22] = assay: Test C postemergence; assay type: in vivo, Ambrosia artemisiifolia; settings: 10 days, 0 to 100 scale (0 no effect, 100 complete control)
# How it was run: as §1
# ryegrass, Italian [23] = assay: Test C preemergence; assay type: in vivo, Lolium multiflorum
# How it was run: as §1
# [24] = 500 g ai/ha, preemergence, 0 to 100 scale (0 no effect, 100 complete control)
# [25] = Preemergence, 125 g ai/ha, 0 to 100 scale, 0 no effect, 100 complete control
compound,measurement,setting,value
CC(C)c1ncn(-c2ccc([S+](C)[O-])c(C(=O)N3C[C@H](C)Oc4c(Cl)cccc43)c2)n1 (stereo partly shown) [Compound 394],Kochia plant response rating,kochia [1]; [24],100
same,"Plant response rating, Kochia",kochia [1]; [25],90
same,"Foxtail, Green plant response rating",green foxtail [2]; [24],100
same,"Plant response rating, Foxtail, Green",green foxtail [2]; [25],100
same,"Plant response rating, Barnyardgrass","barnyardgrass [3]; 500 g ai/ha, postemergence",70
same,"Plant response rating, Barnyardgrass","barnyardgrass [3]; Postemergence, 125 g ai/ha",50
same,"Plant response rating, Oat, Wild","oat, wild [4]; 500 g ai/ha, postemergence",70
same,"Plant response rating, Oat, Wild","oat, wild [4]; Postemergence, 125 g ai/ha",50
same,"Plant response rating, Sedge, Umbrella (Flood)","sedge, umbrella",0
same,Barnyardgrass plant response rating,barnyardgrass [5]; [24],100
same,"Plant response rating, Barnyardgrass",barnyardgrass [5]; [25],70
same,"Oat, Wild plant response rating","oat, wild [6]; [24]",90
same,"Plant response rating, Oat, Wild","oat, wild [6]; [25]",30
same,"Plant response rating, Soybean","soybean [7]; 500 g ai/ha, postemergence",100
same,"Plant response rating, Soybean","soybean [7]; Postemergence, 125 g ai/ha",100
same,"Plant response rating, Horseweed","horseweed; 500 g ai/ha, postemergence",20
same,"Plant response rating, Horseweed","horseweed; Postemergence, 125 g ai/ha",0
same,"Plant response rating, Rice (Flood)",rice,0
same,"Plant response rating, Ducksalad (Flood)",ducksalad,10
same,Blackgrass plant response rating,blackgrass [8]; [24],90
same,"Plant response rating, Blackgrass",blackgrass [8]; [25],30
same,Soybean plant response rating,soybean [9]; [24],100
same,"Plant response rating, Soybean",soybean [9]; [25],20
same,Corn plant response rating,corn [10]; [24],30
same,"Plant response rating, Corn",corn [10]; [25],20
same,"Plant response rating, Wheat","wheat [11]; 500 g ai/ha, postemergence",50
same,"Plant response rating, Wheat","wheat [11]; Postemergence, 125 g ai/ha",30
same,"Plant response rating, Barnyardgrass (Flood)",barnyardgrass [12],15
same,"Plant response rating, Kochia","kochia [13]; 500 g ai/ha, postemergence",90
same,"Plant response rating, Kochia","kochia [13]; Postemergence, 125 g ai/ha",90
same,Ragweed plant response rating,ragweed [14]; [24],50
same,"Plant response rating, Ragweed",ragweed [14]; [25],0
same,"Plant response rating, Ryegrass, Italian","ryegrass, Italian [15]; 500 g ai/ha, postemergence",90
same,"Plant response rating, Ryegrass, Italian","ryegrass, Italian [15]; Postemergence, 125 g ai/ha",50
same,Wheat plant response rating,wheat [16]; [24],80
same,"Plant response rating, Wheat",wheat [16]; [25],20
same,"Plant response rating, Corn","corn [17]; 500 g ai/ha, postemergence",50
same,"Plant response rating, Corn","corn [17]; Postemergence, 125 g ai/ha",20
same,"Plant response rating, Galium","galium; 500 g ai/ha, postemergence",100
same,"Plant response rating, Galium","galium; Postemergence, 125 g ai/ha",100
same,"Plant response rating, Foxtail, Green","green foxtail [18]; 500 g ai/ha, postemergence",90
same,"Plant response rating, Foxtail, Green","green foxtail [18]; Postemergence, 125 g ai/ha",30
same,"Pigweed, Palmer plant response rating","pigweed, palmer [19]; [24]",100
same,"Plant response rating, Pigweed, Palmer","pigweed, palmer [19]; [25]",100
same,"Plant response rating, Blackgrass","blackgrass [20]; 500 g ai/ha, postemergence",70
same,"Plant response rating, Blackgrass","blackgrass [20]; Postemergence, 125 g ai/ha",50
same,"Plant response rating, Pigweed, Palmer","pigweed, palmer [21]; 500 g ai/ha, postemergence",80
same,"Plant response rating, Pigweed, Palmer","pigweed, palmer [21]; Postemergence, 125 g ai/ha",80
same,"Plant response rating, Ragweed","ragweed [22]; 500 g ai/ha, postemergence",70
same,"Plant response rating, Ragweed","ragweed [22]; Postemergence, 125 g ai/ha",70
same,"Ryegrass, Italian plant response rating","ryegrass, Italian [23]; [24]",90
same,"Plant response rating, Ryegrass, Italian","ryegrass, Italian [23]; [25]",60
